Values joined by “and” are separate entries in the source; they are usually repeats but may differ in a detail not shown here. Identical values can stand only once.
Tests used:
[1] = system: humanized PXR-CAR-CYP3A4/3A7 mice, plasma; assay: Plasma metabolomics (HFD study); format: in vivo, mouse
Experimental: Metabolomic plasma analysis was performed using plasma samples from male PXR/CAR/CYP3A4 mice (n=5) treated with MI-883 in the proof-of-concept study involving a high-fat diet^23. Plasma samples were prepared on ice, and each sample was separated into two 20 μl aliquots. All prepared aliquots were then frozen and stored at −80°C until analysis. Plasma aliquots were thawed, and protein precipitation was performed by adding 60 μl of a mixture containing 40% methanol, 40% acetonitrile, and 20% water. Samples were mixed, incubated for 12 hours at -20°C, and then centrifuged at 20,000 g for 10 minutes. The supernatants were collected for analysis by LC-MS/MS. A pooled quality control sample was prepared by mixing 10 μl from each sample. LC separation was performed on an iHILIC® Classic column (iHILIC®-(P) Classic, HILIC Column, PEEK,100x2.1mm, 5µm, 200Å, Hilicon, Umeå, Sweden) using a water/acetonitrile gradient with 10 mM ammonium formate, starting from 95% to 42% over 15 minutes in both polarities. LC-MS/MS analysis was conducted on the ID-X Orbitrap Tribrid Mass Spectrometer (ThermoFisher Scientific).

CAR-LBD = molecular target: T1, CAR-LBD (Homo sapiens, UniProt Q14994); assay: MARCoNI CAR-LBD coregulator interaction array; format: biochemical; conditions: 100 μM
T1 construct: HIS-tagged CAR-LBD (ThermoFisher Sciences, Cat. No PV4836); purchased ThermoFisher PV4836
T1 sequence (Q14994 109-348 isoform Q14994-2 limits assumed): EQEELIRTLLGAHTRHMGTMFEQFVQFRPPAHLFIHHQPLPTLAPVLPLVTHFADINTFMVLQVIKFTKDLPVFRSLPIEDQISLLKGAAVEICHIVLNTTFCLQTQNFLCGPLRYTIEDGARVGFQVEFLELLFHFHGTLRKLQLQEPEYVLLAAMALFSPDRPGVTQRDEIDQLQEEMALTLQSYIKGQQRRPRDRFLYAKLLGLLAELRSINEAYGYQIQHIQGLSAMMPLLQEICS
Experimental: The reaction was performed in a fully automated microarray processing and fluorescent imaging platform (PamStation12) at 20 °C for 80 cycles (two cycles per minute). After removal of the unbound CAR-LBD receptor by washing each array with 25 µl Tris-buffered Saline (TBS) buffer, fluorescent images of the PamChip microarrays were obtained using the PamStation12, and then were analyzed for quantification of CAR binding using BioNavigator software (PamGene International B.V.). For data and statistical analysis, BioNavigator was used.
Modulation index (MI) is the log10-transformed relative binding value, which is calculated by the compound’s binding value, relative to the vehicle control (DMSO) binding value.

FXR = FXR (Homo sapiens, UniProt Q96RI1); assay: Luciferase reporter gene assay FXR, HepG2
FXR, sequence (Q96RI1 whole entry): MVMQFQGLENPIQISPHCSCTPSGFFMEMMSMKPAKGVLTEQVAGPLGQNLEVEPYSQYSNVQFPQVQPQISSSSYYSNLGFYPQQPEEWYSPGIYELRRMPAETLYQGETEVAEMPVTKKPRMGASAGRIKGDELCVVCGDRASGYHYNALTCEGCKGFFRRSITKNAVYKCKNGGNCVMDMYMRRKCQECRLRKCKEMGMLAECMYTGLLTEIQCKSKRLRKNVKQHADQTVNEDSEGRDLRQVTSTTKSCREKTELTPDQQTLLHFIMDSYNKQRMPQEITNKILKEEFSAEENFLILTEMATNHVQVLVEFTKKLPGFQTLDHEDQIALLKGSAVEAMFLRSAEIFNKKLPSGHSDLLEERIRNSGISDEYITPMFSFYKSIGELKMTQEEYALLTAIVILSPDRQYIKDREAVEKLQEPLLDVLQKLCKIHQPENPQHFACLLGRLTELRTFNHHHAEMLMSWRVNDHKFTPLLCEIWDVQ
Description: Gal4-LBD constructs of tested nuclear receptors have been used together with pGL4.31[luc2P/GAL4UAS/Hygro] luciferase reporter construct and pRL-TK Renilla expression vector (both from Promega, Hercules, USA) in HepG2 cells transfected with Lipofectamine 2000 or 3000 reagents. For GRα and FXR receptors, full-length expression vectors have been used with pGRE-luc or pFXRE-luc luciferase constructs. For the aryl hydrocarbon receptor (AhR), p1A1-luc construct was used with only pRL-TK vector for transfection normalization. A dual reporter assay (Promega, Hercules, USA) was used to analyze both firefly and Renilla luciferase activities.
Gal4-LBD constructs of tested nuclear receptors have been used together with pGL5-luc luciferase reporter construct and pRL-TK Renilla expression vector in HepG2 cells transfected with Lipofectamine 2000 or 3000 reagents. For GRα and FXR receptors, full-length expression vectors have been used with pGRE-luc or pFXRE-luc luciferase constructs. For the aryl hydrocarbon receptor (AhR), p1A1-luc construct was used with only pRL-TK vector for transfection normalization. […] Bars represent means±S.D. (n=3).

[2] = system: humanized PXR-CAR-CYP3A4/3A7 mice, liver; assay: NGS RNA-Seq of liver samples (HFD study); format: in vivo, mouse
Experimental: Total RNA from liver samples has been isolated using TRIZOL®. Total RNA was purified using Agencourt RNAClean XP Beads (Beckman Coulter, Inc.) and then the diluted RNA was quantified using Qubit 2.0 Fluorometer with Qubit RNA BR Assay Kit (Invitrogen) for precise measurement. The integrity of purified RNA was evaluated based on RIN (>7) acquired using the 2100 Bioanalyzer System with Total RNA Nano Chip (Agilent Technologies) according to the manufacturer’s protocol.
The input amount of total RNA used in the libraries was 520 ng. Libraries were constructed with NEBNext Ultra II Directional RNA Library Prep Kit for Illumina (New England Biolabs Inc., Ipswich, MA, USA). […] The samples were multiplexed using suitable molecular barcodes by using the NEBNext Multiplex Oligos from Illumina. Adaptor enrichment was performed by using eight cycles of PCR.
The concentration of molecular libraries was measured using Qubit 2.0 Fluorometer with Qubit dsDNA HS Assay Kit (Invitrogen) and subsequently, the fragment sizes were analyzed by Bioanalyzer System 2100 using High Sensitivity DNA Chip (Agilent Technologies), with expected fragments between 200 and 600 bp in size. The molarity of individual libraries was calculated using determined concentrations and modal lengths. Each sample of the library was normalized to 14 nM concentration, and the normalized libraries were pooled and sequenced on an Illumina NovaSeq6000 platform (Illumina) with paired-end sequencing of libraries with a read length of 150 b.
The quality of raw sequencing data was assessed using MultiQC tool. Fastq files were aligned to the mouse reference genome (mm10) using STAR aligner and featureCounts was used to make count matrices. Data was filtered to only include genes with a minimum 60 counts in all samples. Data were analyzed using the DESeq2 package of RStudio 2023.06.1 and R software v4.3.1 (https://www.R-project.org/). […] P values were adjusted for multiple testing to reduce false discovery rate. For further analysis RNAs with more than twofold expression were selected (log2FC > 1 or < –1). Differential expression was analyzed using DESeq2 package (Fig. 4a). Volcano plot was visualized using R package ggplot2 and ggrepel. Gene ontology (GO) and pathway analyses were done with the R package clusterProfiler[64] using function enrichGO. P value < 0.001 was defined as the significance threshold.
A heatmap was made using z-score normalized reads (z = [x-mean]/standard deviation) and visualized using the R package pheatmap. Hierarchical clustering was performed with the Ward method as a part of the pheatmap R package. The data presented in this publication have been deposited in NCBI’s Gene Expression Omnibus database with GEO Series accession number GSE262786.https://www.ncbi.nlm.nih.gov/geo/query/acc.cgi?acc=GSE262786.

[3] = FigS18c, plasma, individual animals

## NC(=O)c1cc(Cn2cc(-c3c(-c4ccc(Cl)cc4)nc4cc(F)ccn34)nn2)ccc1Cl [MI-883, 2-chloro-5-((4-(2-(4-chlorophenyl)-7-fluoroimidazo[1,2-a]pyridin-3-yl)-1H-1,2,3-triazol-1-yl)methyl)benzamide]
[1]; [3]
  Isoleucine (plasma metabolomic data): 93.5 and 119.8 and 74.2 and 56.6 and 106.4 and 73.7
  Leucine (plasma metabolomic data): 53.5 and 73.3 and 34.8 and 24.3 and 49.7 and 38.6
  Valine (plasma metabolomic data): 2968.9 and 1967.5 and 1520.8 and 1183.5 and 1942.7 and 1962.8
[1]; HFD study, male mice
  plasma 2-hydroxy-3-oxopropanoate, change: 1.595 fold
  plasma 5-aminopentanoic acid (5-aminovalerate), change: 1.375 fold
  plasma isoleucine, change: 1.638 fold
  plasma small-molecule metabolome: no significant effect
CAR-LBD
  CAR-coregulator interaction profile: attracts several coactivators, including NCOA1, NCOA2, and NCOA3 proteins
FXR
  NRs assays: FXR (relative to ctrl, replicates): 0.85 and 0.88 and 1.01
[2]; HFD study
  liver Apoc1, Apoc4, Apoa5, Apoa1, RNA-Seq: marginally but significantly downregulated
  liver Scarb1, Angptl3, Lipc, RNA-Seq: marginally, but significantly, downregulated
  liver genes of fatty acid metabolism (Scd1, Fabp2, Srebf1), RNA-Seq: significantly downregulated
  liver transporters Abcb1, Bsep, Abcg5/8: not been significantly affected
[2]; HFD study (Fig. 6e)
  liver Hmgcr mRNA upregulation: 1.31 fold and 1.3 fold
[2]; HFD study, n=5, FDR_DESeq 0.0023
  liver Scd1 mRNA, log2FC_DESeq: -0.4854 log2FC
[2]; HFD study, 0.008 FDR_DESeq
  liver Cyp2c70, log2FC: –0.58 log2FC

— article PMC11802874, “The hypolipidemic effect of MI-883, the combined CAR agonist/ PXR antagonist, in diet-induced hypercholesterolemia model” (Nature Communications, 2025)
